For 24 compounds, IC50 results are on record in patent publication US12617773B2, “Azetidin-3-ylmethanol derivatives as CCR6 receptor modulators” (Idorsia Pharmaceuticals Ltd, priority 2020, dated 2026).

Structures are written as SMILES. pIC50: −log10 of the molar value.

For this assay, the target named is T1, human CCR6 (Homo sapiens, UniProt P51684).
T1 construct: expressed in transfected cells; host or cells: HEK-293
T1 sequence (P51684 1-374): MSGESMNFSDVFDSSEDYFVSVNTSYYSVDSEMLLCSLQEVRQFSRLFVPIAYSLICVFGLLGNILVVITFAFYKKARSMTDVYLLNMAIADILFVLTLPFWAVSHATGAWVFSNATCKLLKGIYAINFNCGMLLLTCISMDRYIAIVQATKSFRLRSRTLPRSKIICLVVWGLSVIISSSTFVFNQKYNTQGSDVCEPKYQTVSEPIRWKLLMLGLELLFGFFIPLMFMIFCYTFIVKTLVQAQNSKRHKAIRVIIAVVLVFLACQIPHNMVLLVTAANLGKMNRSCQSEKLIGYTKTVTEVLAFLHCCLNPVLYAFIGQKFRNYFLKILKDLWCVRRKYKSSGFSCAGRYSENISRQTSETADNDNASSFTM
The experiment in a line: FLIPR assay (inhibition of CCL20-induced calcium signal). The note with it: HEK-293 cells expressing human CCR6; mean values where determined several times; read-out: FLIPR IC50. In kind it is cell-based. In short, it runs like this: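 IC50 values come from baseline-corrected peak calcium fluorescence after agonist. The agonist was CCL20 at 10 nM final, added to engineered human CCR6 HEK-293 cells following a 30-min, room-temperature, dark preincubation with serially diluted compound. Readings were taken in a fluorometric imaging plate reader.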
In the case of `CC(C)c1ccc([C@](O)(c2cncc(-c3nc(CC(C)(C)O)no3)c2)C2(C)CN(C)C2)cc1` [Example 102], the pIC50 was 6.99.

Turning to `CC(C)c1ccc([C@](O)(c2cncc(-c3noc(CS(C)(=O)=O)n3)c2)C2(C)CN(C)C2)cc1` [Example 103, (R)-(1,3-Dimethyl-azetidin-3-yl)-(4-isopropyl-phenyl)-[5-(5-methanesulfonylmethyl-[1,2,4]oxadiazol-3-yl)-pyridin-3-yl]-methanol], the pIC50 is 6.96. Consider `COCCc1nc(-c2cncc([C@@](O)(c3ccc(C(C)C)cc3)C3(C)CN(C)C3)c2)no1` [Example 104], for which the negative logarithm of the IC50 (pIC50) was 7.37. Next, `COCc1nc(-c2cncc([C@@](O)(c3ccc(C(C)C)cc3)C3(C)CN(C)C3)c2)no1` [Example 105]: 7.36.

For the compound `CC(C)c1ccc([C@](O)(c2cncc(-c3noc(C4CCOC4)n3)c2)C2(C)CN(C)C2)cc1` (stereo partly drawn) [Example 106], the pIC50 is 7.33. On to `CC(C)c1ccc([C@](O)(c2cncc(-c3noc(C4CCOCC4)n3)c2)C2(C)CN(C)C2)cc1` [Example 107], for which the pIC50 was 7.27. In the case of `CC(C)c1ccc([C@](O)(c2cncc(-c3noc(C4(O)CCCCC4)n3)c2)C2(C)CN(C)C2)cc1` [Example 108] it was 7.68. Next, `CC(C)c1ccc([C@](O)(c2cncc(-c3noc(COC(C)(C)C)n3)c2)C2(C)CN(C)C2)cc1` [Example 109]: 7.67; `CC(C)c1ccc([C@](O)(c2cncc(-c3noc(CC4CCOCC4)n3)c2)C2(C)CN(C)C2)cc1` [Example 110]: 7.41; `CC(C)c1ccc([C@](O)(c2cncc(-c3noc(C4CCC(O)CC4)n3)c2)C2(C)CN(C)C2)cc1` (stereo partly drawn) [Example 111]: 7.37. In the case of `CC(C)c1ccc([C@](O)(c2cncc(-c3noc(CC4(O)CCCCC4)n3)c2)C2(C)CN(C)C2)cc1` [Example 112] it was 7.41.

As for `COC1(c2nc(-c3cncc([C@@](O)(c4ccc(C(C)C)cc4)C4(C)CN(C)C4)c3)no2)CCC1` [Example 113], the pIC50 is 7.53.

As to `CC(C)c1ccc([C@](O)(c2cncc(-c3noc(C4CC45CCOCC5)n3)c2)C2(C)CN(C)C2)cc1` (stereo partly drawn) [Example 114], the pIC50 was 7.42. In the case of `CC(C)c1ccc([C@](O)(c2cncc(-c3noc(C4CCCOC4)n3)c2)C2(C)CN(C)C2)cc1` (stereo partly drawn) [Example 115] it was 7.39; in that of `CC(C)c1ccc([C@](O)(c2cncc(-c3noc(CC4CCCO4)n3)c2)C2(C)CN(C)C2)cc1` (stereo partly drawn) [Example 116], 7.39. Take `CC(C)c1ccc([C@](O)(c2cncc(-c3noc([C@@](C)(O)C(F)(F)F)n3)c2)C2(C)CN(C)C2)cc1` [Example 117]: the pIC50 is 7.70. Regarding `COC(C)(C)c1nc(-c2cncc([C@@](O)(c3ccc(C(C)C)cc3)C3(C)CN(C)C3)c2)no1` [Example 118], the pIC50 is 7.37.

Regarding `CC(C)c1ccc([C@](O)(c2cncc(-c3noc([C@H](O)C4CCCCC4)n3)c2)C2(C)CN(C)C2)cc1` [Example 119], the pIC50 was 7.69. In the case of `CC(C)c1ccc([C@](O)(c2cncc(-c3noc(C4(O)CC4)n3)c2)C2(C)CN(C)C2)cc1` [Example 120] it was 7.23; in that of `CC(C)c1ccc([C@](O)(c2cncc(-c3noc(C(C)(C)O)n3)c2)C2(C)CN(C)C2)cc1` [Example 121], 7.24. In the case of `CC(C)c1ccc([C@](O)(c2cncc(-c3noc(C4(O)CCCC4)n3)c2)C2(C)CN(C)C2)cc1` [Example 122] it was 7.38; in that of `CC(C)c1ccc([C@](O)(c2cncc(-c3noc(C4CC(O)C4)n3)c2)C2(C)CN(C)C2)cc1` (stereo partly drawn) [Example 123], 7.33; in that of `CC(C)c1ccc([C@](O)(c2cncc(-c3noc(C4(F)CCOCC4)n3)c2)C2(C)CN(C)C2)cc1` [Example 124], 7.44. Next, `CC(C)c1ccc([C@](O)(c2cncc(-c3noc([C@H]4C[C@@H](C)O[C@@H](C)C4)n3)c2)C2(C)CN(C)C2)cc1` [Example 125]: 7.33.

One may read the pIC50 as −log10 of the IC50, conventionally taken in molar units.
